According to ChEMBL document CHEMBL1153669, “Rs-100235: A high affinity 5-HT4 receptor antagonist” (Bioorg Med Chem Lett, 1995):

Legend:
Sus scrofa [1] = experiment: Antagonism of 5-HT-induced tachycardia in anesthetized, vagotomized Yucatan micropigs at 1-300 ug/kg dose administered intravenously; type: functional; conditions: iv, read-out: ID50 (the source's name)
Sus scrofa [2] = experiment: Antagonism of 5-HT-induced tachycardia in anesthetized, vagotomized Yucatan micropigs at 30-3000 ug/kg dose administered intraduodenally; type: functional; conditions: intraduodenal, read-out: ID50 (the source's name)
[3] = biological target: 5-hydroxytryptamine receptor 4 (Rattus norvegicus) (UniProt Q62758); experiment: Antagonist activity against 5-HT4 receptor mediated relaxation of rat carbachol contracted esophageal muscularis mucosae; type: functional
Chain of 5-hydroxytryptamine receptor 4 (Rattus norvegicus) (Q62758 whole entry): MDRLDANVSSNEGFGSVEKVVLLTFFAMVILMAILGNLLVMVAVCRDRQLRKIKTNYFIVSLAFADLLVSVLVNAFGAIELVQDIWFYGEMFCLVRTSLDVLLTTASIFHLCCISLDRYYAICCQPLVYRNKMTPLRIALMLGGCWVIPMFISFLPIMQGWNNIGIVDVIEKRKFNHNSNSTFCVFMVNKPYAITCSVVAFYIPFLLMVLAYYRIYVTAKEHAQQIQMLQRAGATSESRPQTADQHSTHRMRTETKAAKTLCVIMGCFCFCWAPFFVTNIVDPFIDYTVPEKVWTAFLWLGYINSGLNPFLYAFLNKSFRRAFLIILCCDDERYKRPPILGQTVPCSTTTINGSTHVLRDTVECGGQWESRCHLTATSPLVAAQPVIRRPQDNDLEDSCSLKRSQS

[4] = Compound was tested for its half-life period at an intravenous dose of 30 ug/kg; type: ADME, organism-based, Sus scrofa; conditions: pig, in vivo, 0.03 mg/kg

SMILES | ED50 (Sus scrofa [1]) | ED50 (Sus scrofa [2]) | pKb [3] | half-life [4]
COc1cc(COc2cc(N)c(Cl)cc2C(=O)CCC2CCN(CCNS(C)(=O)=O)CC2)cc(OC)c1 | 0.00468 mg/kg | 0.245 mg/kg | 9.1 | 5.25 h
Cn1cc(C(=O)OCC2CCN(CCNS(C)(=O)=O)CC2)c2ccccc21 | – | – | 9 | –
COc1ccc(CCCN2CCC(CCC(=O)c3cc(Cl)c(N)c4c3OCCO4)CC2)cc1 | – | – | 10.6 | –
CCCCN1CCC(CCC(=O)c2cc(Cl)c(N)c3c2OCCO3)CC1 | – | – | 9.9 | –
